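Five compound concentrations were applied to cells in 96-well plates for 48 hours; endpoints were derived by simple linear interpolation of the resulting dose-response curve. GI50 is the concentration that inhibits growth by half. At the TGI there is no net growth.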
Tests used:
Experiment in all cases: DTP human tumour cell line panel, 48 h
[1] = tested on: T-47D breast
[2] = tested on: CAKI-1 renal
[3] = tested on: NCI-H226 lung
[4] = tested on: SF-295 CNS
[5] = tested on: M14 melanoma
[6] = tested on: COLO 205 colon
[7] = tested on: U251 CNS
[8] = tested on: CCRF-CEM leukemia
[9] = tested on: RXF 393 renal
[10] = tested on: HCC-2998 colon
[11] = tested on: MALME-3M melanoma
[12] = tested on: UO-31 renal
[13] = tested on: ACHN renal
[14] = tested on: SNB-75 CNS
[15] = tested on: MCF7 breast
[16] = tested on: NCI/ADR-RES ovarian
[17] = tested on: HOP-62 NSCLC
[18] = tested on: SR leukemia
[19] = tested on: 786-0 renal
[20] = tested on: TK-10 renal
[21] = tested on: HS 578T breast
[22] = tested on: HT29 colon
[23] = tested on: RPMI-8226 leukemia
[24] = tested on: SK-MEL-28 melanoma
[25] = tested on: SF-539 CNS
[26] = tested on: MDA-MB-231 breast
[27] = tested on: OVCAR-3 ovarian
[28] = tested on: PC-3 prostate
[29] = tested on: HCT-15 colon
[30] = tested on: SF-268 CNS
[31] = tested on: SK-OV-3 ovarian
[32] = tested on: SW-620 colon
[33] = tested on: UACC-257 melanoma
[34] = tested on: IGROV1 ovarian
[35] = tested on: SNB-19 CNS
[36] = tested on: HOP-92 NSCLC
[37] = tested on: UACC-62 melanoma
[38] = tested on: SN12C renal
[39] = tested on: DU-145 prostate
[40] = tested on: NCI-H460 lung
[41] = tested on: SK-MEL-5 melanoma
[42] = tested on: OVCAR-4 ovarian
[43] = tested on: K-562 leukemia
[44] = tested on: BT-549 breast
[45] = tested on: A498 renal
[46] = tested on: OVCAR-5 ovarian
[47] = tested on: HL-60(TB) leukemia
[48] = tested on: EKVX NSCLC
[49] = tested on: A549 NSCLC
[50] = tested on: SK-MEL-2 melanoma
[51] = tested on: MOLT-4 leukemia

## COc1ccc2[nH]cc(-c3csc4nc(-c5ccccc5)cn34)c2c1
[1]
  GI50: 382 nM
  TGI: > 100000 nM
[2]
  GI50: 404 nM
  TGI: 12100 nM
[3]
  GI50: 947 nM
  TGI: 5760 nM
[4]
  GI50: 395 nM
  TGI: 4240 nM
[5]
  GI50: 295 nM
  TGI: > 100000 nM
[6]
  GI50: 334 nM
  TGI: 1150 nM
[7]
  GI50: 401 nM
[8]
  GI50: 248 nM
  TGI: > 100000 nM
[9]
  GI50: 553 nM
  TGI: 4770 nM
[10]
  GI50: 602 nM
  TGI: 3750 nM
[11]
  GI50: 492 nM
  TGI: 31800 nM
[12]
  GI50: 465 nM
  TGI: 32000 nM
[13]
  GI50: 612 nM
  TGI: 20600 nM
[14]
  GI50: 240 nM
  TGI: 779 nM
[15]
  GI50: 276 nM
  TGI: > 100000 nM
[16]
  GI50: 252 nM
  TGI: 1320 nM
[17]
  GI50: 579 nM
  TGI: 19100 nM
[18]
  GI50: 66 nM
  TGI: > 100000 nM
[19]
  GI50: 599 nM
  TGI: > 19900 nM
[20]
  GI50: 6970 nM
  TGI: 42600 nM
[21]
  GI50: 328 nM
  TGI: 10300 nM
[22]
  GI50: 324 nM
  TGI: 1120 nM
[23]
  GI50: 416 nM
  TGI: 3860 nM
[24]
  GI50: 724 nM
  TGI: > 90200 nM
[25]
  GI50: 359 nM
  TGI: 1830 nM
[26]
  GI50: 524 nM
  TGI: > 100000 nM
[27]
  GI50: 355 nM
  TGI: 3320 nM
[28]
  GI50: 412 nM
  TGI: > 100000 nM
[29]
  GI50: 242 nM
  TGI: > 23100 nM
[30]
  GI50: 823 nM
  TGI: > 80800 nM
[31]
  GI50: 489 nM
  TGI: > 43900 nM
[32]
  GI50: 360 nM
  TGI: > 100000 nM
[33]
  GI50: 525 nM
  TGI: > 100000 nM
[34]
  GI50: 477 nM
  TGI: > 100000 nM
[35]
  GI50: 616 nM
  TGI: > 100000 nM
[36]
  GI50: 424 nM
  TGI: 5300 nM
[37]
  GI50: 327 nM
  TGI: 20800 nM
[38]
  GI50: 470 nM
  TGI: > 100000 nM
[39]
  GI50: 576 nM
  TGI: > 100000 nM
[40]
  GI50: 374 nM
  TGI: 2530 nM
[41]
  GI50: 407 nM
  TGI: 3640 nM
[42]
  GI50: 2220 nM
  TGI: > 100000 nM
[43]
  GI50: 139 nM
  TGI: > 100000 nM
[44]
  GI50: 508 nM
  TGI: 4800 nM
[45]
  GI50: 3730 nM
[46]
  GI50: 709 nM
  TGI: > 100000 nM
[47]
  GI50: 287 nM
  TGI: > 100000 nM
[48]
  GI50: 804 nM
  TGI: > 100000 nM
[49]
  GI50: 891 nM
  TGI: > 88400 nM
[50]
  GI50: 291 nM
  TGI: 851 nM
[51]
  GI50: 440 nM
  TGI: > 51900 nM
